Measurements published in article PMC7413254 (Nature Communications, 2020).
Where two headings read alike, the source gives them in different places.

Assays:
[1] = target: T1, PfCRT^Ecu1110 (Plasmodium falciparum, UniProt Q9N623, A220S/I356L/K76T/N326D); test: [3H]CQ uptake into Xenopus oocytes, cis-inhibition by unlabelled solute; assay type: cell-based
Outline: (§1)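 ND96, pH 5.5, 1.5 h, 27.5 °C; uptake direction acidic outside → oocyte cytosol, mimicking efflux from digestive vacuole. Ice-cold wash stop, 10% SDS lysis, scintillation counting. Ten oocytes/treatment, ≥4 independent experiments.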

[2] = target: T2, PfCRT^Dd2 (Plasmodium falciparum, UniProt Q9N623, A220S/I356T/K76T/M74I/N326S/N75E/Q271E/R371I); test: as above; assay type: cell-based
Outline: as §1

[3] = target: T3, PfCRT^3D7 (Plasmodium falciparum, UniProt Q8IBZ9); test: cell-based; assay type: cell-based; details: total [3H]CQ transport; for inhibition at 500 µM: [test solute] = 0.5 mM; for inhibition at 1000 µM: [test solute] = 1 mM; for inhibition at 2000 µM: [test solute] = 2 mM
Outline: as §1

[4] = tested on: non-expressing oocytes; assay type: cell-based, Xenopus laevis; details: total [3H]CQ transport; for Uptake of [3H]CQ (% non-expressing oocyte control), trans-stimulation: non-expressing oocytes, normalised to the oocyte type control; for Uptake of [3H]CQ (% PfCRTDd2 control), trans-stimulation, non-expressing oocytes: mean ± SEM, SEM
Outline: (§2)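 Oocytes (ten per treatment, ≥4 independent frogs/days) were preloaded by injecting VF-6 in 25 nL ND96 at pH 5.0, 5.5, 6.0 or 7.0, or Na^+-free choline buffer, then uptake run 1.5 h, 27.5 °C, ND96 pH 5.5 by default. Internal concentrations assumed ~400 nL oocyte volume.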

[5] = tested on: PfCRT; test: Test of solutes as potential co-substrates for influx of VF-6 via PfCRT into the oocyte; assay type: cell-based, Plasmodium falciparum; set-up: key: X: Compounds that have been tested as potential co-substrates but are not required for influx of VF-6 via PfCRT into the oocyte; details: X = tested
[6] = target: T1, PfCRT^Ecu1110; test: cell-based; assay type: cell-based; details: […]
Outline: as §2

[7] = target: T3, PfCRT^3D7; test: cell-based; assay type: cell-based
Outline: as §2

[8] = target: T4, PfNT1 (Plasmodium falciparum, UniProt Q8IDM6); test: cell-based; assay type: cell-based; details: for activity at 5000 µM: total [3H]CQ transport
T4 construct: expressed in transfected cells; host or cells: Xenopus laevis oocytes (stage V-VI), cRNA-injected
Outline: as §2

[9] = target: T2, PfCRT^Dd2; test: cell-based; assay type: cell-based; details: […]; for activity at 45000 µM: [test solute]i = 45 mM (30 mM for some solutes due to solubility)
Outline: as §2

[10] = tested on: PfCRT; test: Influx of VF-6 via PfCRT into the oocyte, solutes tested as potential co-substrates; assay type: cell-based, Plasmodium falciparum; set-up: key: X: Compounds that have been tested as potential co-substrates but are not required for influx of VF-6 via PfCRT into the oocyte; details: X marks the solute
[11] = tested on: non-expressing oocytes; test: cells; assay type: cell-based, Xenopus laevis; details: Xenopus laevis, total [3H]CQ transport; for inhibition at 500 µM: [test solute] = 0.5 mM; for inhibition at 1000 µM: [test solute] = 1 mM; for inhibition at 2000 µM: [test solute] = 2 mM
Outline: as §1

[12] = read-out: PfCRT-mediated [3H]CQ transport, cis-inhibition (% PfCRTEcu1110 control)
[13] = read-out: Uptake of [3H]CQ (% PfCRTDd2 control), cis-inhibition, PfCRTEcu1110, SEM
[14] = read-out: Uptake of [3H]CQ (% PfCRTEcu1110 control), cis-inhibition
[15] = read-out: [3H]CQ transport (% PfCRTEcu1110 control), cis-inhibition, PfCRTEcu1110, SEM
[16] = read-out: PfCRT-mediated [3H]CQ transport, cis-inhibition (% PfCRTDd2 control)
[17] = read-out: Uptake of [3H]CQ (% PfCRTDd2 control), cis-inhibition
[18] = read-out: Uptake of [3H]CQ (% PfCRTDd2 control), cis-inhibition, PfCRTDd2, SEM
[19] = read-out: [3H]CQ transport (% PfCRTDd2 control), cis-inhibition, PfCRTDd2, SEM
[20] = PfCRT3D7 oocytes, normalised to the oocyte type control, read-out: Uptake of [3H]CQ (% PfCRT3D7 control), cis-inhibition
[21] = mean ± SEM, SEM, read-out: Uptake of [3H]CQ (% PfCRTDd2 control), cis-inhibition, PfCRT3D7
[22] = Oocyte, mean ± SEM, SEM, read-out: Uptake of [3H]CQ (% PfCRTDd2 control), cis-inhibition, non-expressing oocytes
[23] = non-expressing oocytes, normalised to the oocyte type control, read-out: Uptake of [3H]CQ (% non-expressing oocyte control), cis-inhibition

T3 sequence (Q8IBZ9 59-398): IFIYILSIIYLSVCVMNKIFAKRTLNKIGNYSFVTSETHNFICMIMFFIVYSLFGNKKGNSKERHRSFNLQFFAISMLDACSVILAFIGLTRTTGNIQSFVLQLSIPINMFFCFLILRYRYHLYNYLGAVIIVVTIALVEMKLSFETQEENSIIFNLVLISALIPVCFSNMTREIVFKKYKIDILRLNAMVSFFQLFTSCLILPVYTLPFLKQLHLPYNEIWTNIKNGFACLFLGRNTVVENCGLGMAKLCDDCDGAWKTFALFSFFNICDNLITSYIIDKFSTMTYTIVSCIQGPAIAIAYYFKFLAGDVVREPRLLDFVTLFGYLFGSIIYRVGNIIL
T2 sequence (Q9N623 whole entry A220S/I356T/K76T/M74I/N326S/N75E/Q271E/R371I): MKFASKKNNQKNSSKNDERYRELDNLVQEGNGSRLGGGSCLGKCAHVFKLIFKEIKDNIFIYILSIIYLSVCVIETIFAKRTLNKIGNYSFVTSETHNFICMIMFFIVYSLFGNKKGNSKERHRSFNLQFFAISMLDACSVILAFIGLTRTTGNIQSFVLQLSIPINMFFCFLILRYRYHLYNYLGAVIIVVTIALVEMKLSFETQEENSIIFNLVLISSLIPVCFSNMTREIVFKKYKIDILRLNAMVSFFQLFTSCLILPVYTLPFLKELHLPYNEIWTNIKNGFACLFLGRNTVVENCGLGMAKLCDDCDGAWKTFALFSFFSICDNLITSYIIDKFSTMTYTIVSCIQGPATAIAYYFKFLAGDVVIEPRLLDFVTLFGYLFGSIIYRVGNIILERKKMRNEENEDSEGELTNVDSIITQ
T1 sequence (Q9N623 whole entry A220S/I356L/K76T/N326D): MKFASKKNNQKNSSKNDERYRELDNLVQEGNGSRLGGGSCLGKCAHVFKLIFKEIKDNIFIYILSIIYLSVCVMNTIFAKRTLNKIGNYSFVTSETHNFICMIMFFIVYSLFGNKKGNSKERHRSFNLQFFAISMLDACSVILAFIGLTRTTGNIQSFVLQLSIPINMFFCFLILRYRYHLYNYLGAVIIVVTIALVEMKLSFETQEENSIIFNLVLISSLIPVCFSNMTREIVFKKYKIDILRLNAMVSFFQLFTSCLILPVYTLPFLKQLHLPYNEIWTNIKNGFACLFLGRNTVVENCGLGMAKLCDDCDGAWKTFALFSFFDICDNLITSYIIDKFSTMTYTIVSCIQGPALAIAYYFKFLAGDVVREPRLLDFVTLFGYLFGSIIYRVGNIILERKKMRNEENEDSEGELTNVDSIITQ
T4 sequence (Q8IDM6 whole entry): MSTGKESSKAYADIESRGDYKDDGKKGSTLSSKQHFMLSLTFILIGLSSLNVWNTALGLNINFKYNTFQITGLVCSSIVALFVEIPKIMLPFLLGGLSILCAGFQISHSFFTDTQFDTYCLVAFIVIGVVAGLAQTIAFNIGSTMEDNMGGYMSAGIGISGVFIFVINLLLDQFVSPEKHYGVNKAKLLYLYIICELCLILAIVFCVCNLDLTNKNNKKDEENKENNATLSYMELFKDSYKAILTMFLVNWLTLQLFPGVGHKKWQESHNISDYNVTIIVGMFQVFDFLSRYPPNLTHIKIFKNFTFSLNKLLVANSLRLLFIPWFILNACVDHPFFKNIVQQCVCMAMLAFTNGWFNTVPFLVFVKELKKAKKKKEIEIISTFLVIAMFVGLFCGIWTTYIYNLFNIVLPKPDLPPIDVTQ

N[C@@H](Cc1c[nH]c2ccccc12)C(=O)O [L-tryptophan]
inhibition at 500 µM [1, 12]: 96 ± 3.7% | inhibition at 1000 µM [1, 12]: 95 ± 4.6% | inhibition at 500 µM [1, 13]: 32 ± 1.6% | inhibition at 1000 µM [1, 13]: 32 ± 0.6% | inhibition at 2000 µM [1, 13]: 33 ± 1.4% | inhibition at 500 µM [1, 14]: 98 ± 2.5% | inhibition at 1000 µM [1, 14]: 97 ± 2.7% | inhibition at 2000 µM [1, 14]: 101 ± 3.1% | inhibition at 500 µM [1, 15]: 29 ± 1.3% | inhibition at 1000 µM [1, 15]: 29 ± 0.3% | inhibition at 2000 µM [1, 15]: 30 ± 1.4% | inhibition at 500 µM [2, 16]: 94 ± 4.6% | inhibition at 1000 µM [2, 16]: 95 ± 1.9% | inhibition at 2000 µM [2, 16]: 95 ± 1.9% | inhibition at 1000 µM [2, 17]: 97 ± 2.6% | inhibition at 2000 µM [2, 17]: 97 ± 2.5% | inhibition at 500 µM [2, 18]: 96 ± 2.1% | inhibition at 1000 µM [2, 18]: 97 ± 2.6% | inhibition at 2000 µM [2, 18]: 97 ± 2.5% | inhibition at 1000 µM [2, 19]: 95 ± 1.9% | inhibition at 2000 µM [2, 19]: 95 ± 1.9% | inhibition at 500 µM [3, 20]: 100 ± 3.2% | inhibition at 1000 µM [3, 20]: 99 ± 4.6% | inhibition at 2000 µM [3, 20]: 100 ± 3.6% | inhibition at 500 µM [3, 21]: 2.7 ± 0.03% | inhibition at 1000 µM [3, 21]: 2.5 ± 0.04% | inhibition at 2000 µM [3, 21]: 2.7 ± 0.04% | Uptake of [3H]CQ (% non-expressing oocyte control), trans-stimulation ([4]; [test solute]i = 5 mM): 98 ± 2.5 % non-expressing oocyte control | Uptake of [3H]CQ (% non-expressing oocyte control), trans-stimulation ([4]; [test solute]i = 45 mM (30 mM for some solutes due to solubility)): 99 ± 2.1 % non-expressing oocyte control | Uptake of [3H]CQ (% PfCRTDd2 control), trans-stimulation, non-expressing oocytes ([4]; [test solute]i = 5 mM (intracellular)): 3.0 ± 0.04 % PfCRTDd2 control | Uptake of [3H]CQ (% PfCRTDd2 control), trans-stimulation, non-expressing oocytes ([4]; [test solute]i = 45 mM (intracellular; 30 mM for some solutes due to solubility)): 3.2 ± 0.01 % PfCRTDd2 control | Tested as potential co-substrate but not required for influx of VF-6 via PfCRT into the oocyte [5]: X | activity at 5000 µM ([6]; pH 5.5, read-out: PfCRT-mediated [3H]CQ transport, trans-stimulation (% PfCRTEcu1110 control), [test solute]i = 5 mM (intracellular), PfCRTEcu1110 oocytes, normalised to oocyte type control): 97 ± 2.2% | activity at 5000 µM ([6]; pH 5.5, read-out: Uptake of [3H]CQ (% PfCRTEcu1110 control), trans-stimulation, PfCRTEcu1110 oocytes, [test solute]i = 5 mM, total [3H]CQ transport, normalised to the oocyte type control): 99 ± 3.1% | activity at 45000 µM ([6]; pH 5.5, read-out: Uptake of [3H]CQ (% PfCRTEcu1110 control), trans-stimulation, PfCRTEcu1110 oocytes, [test solute]i = 45 mM (30 mM for some solutes due to solubility), total [3H]CQ transport, normalised to the oocyte type control): 99 ± 3.5% | activity at 5000 µM ([6]; read-out: Uptake of [3H]CQ (% PfCRTDd2 control), trans-stimulation, PfCRTEcu1110, total [3H]CQ transport, [test solute]i = 5 mM (intracellular), mean ± SEM, SEM): 35 ± 1.9% | activity at 45000 µM ([6]; read-out: Uptake of [3H]CQ (% PfCRTDd2 control), trans-stimulation, PfCRTEcu1110, total [3H]CQ transport, [test solute]i = 45 mM (intracellular; 30 mM for some solutes due to solubility), mean ± SEM, SEM): 35 ± 2.1% | activity at 5000 µM ([7]; PfCRT3D7 oocytes, [test solute]i = 5 mM, total [3H]CQ transport, normalised to the oocyte type control, read-out: Uptake of [3H]CQ (% PfCRT3D7 control), trans-stimulation): 100 ± 3.5% | [3H]CQ transport (% PfCRT3D7 control), trans-stimulation, PfCRT3D7 ([7]; SEM): 0.3 ± 0.02 % PfCRT3D7 control | activity at 5000 µM ([7]; [test solute]i = 5 mM (intracellular), PfCRT3D7 oocytes, normalised to oocyte type control, read-out: PfCRT-mediated [3H]CQ transport, trans-stimulation (% PfCRT3D7 control)): 98 ± 4.7% | activity at 45000 µM ([7]; SEM, read-out: Uptake of [3H]CQ (% PfCRTDd2 control), trans-stimulation, PfCRT3D7): 3.4 ± 0.06% | activity at 45000 µM ([7]; read-out: PfCRT-mediated [3H]CQ transport, trans-stimulation (% PfCRT3D7 control)): 99 ± 3.4% | activity at 45000 µM ([7]; read-out: Uptake of [3H]CQ (% PfCRT3D7 control), trans-stimulation): 101 ± 2.5% | activity at 5000 µM ([7]; total [3H]CQ transport, [test solute]i = 5 mM (intracellular), mean ± SEM, SEM, read-out: Uptake of [3H]CQ (% PfCRTDd2 control), trans-stimulation, PfCRT3D7): 3.3 ± 0.06% | activity at 5000 µM ([8]; PfNT1 oocytes, [test solute]i = 5 mM, normalised to the oocyte type control, read-out: Uptake of [3H]CQ (% PfNT1 control), trans-stimulation): 101 ± 3.9% | activity at 45000 µM ([8]; SEM, read-out: Uptake of [3H]CQ (% PfCRTDd2 control), trans-stimulation, PfNT1): 2.1 ± 0.03% | activity at 45000 µM ([8]; read-out: Uptake of [3H]CQ (% PfNT1 control), trans-stimulation): 98 ± 3.2% | activity at 5000 µM ([8]; [test solute]i = 5 mM (intracellular), mean ± SEM, SEM, read-out: Uptake of [3H]CQ (% PfCRTDd2 control), trans-stimulation, PfNT1): 2.7 ± 0.05% | activity at 5000 µM ([9]; pH 5.5, read-out: PfCRT-mediated [3H]CQ transport, trans-stimulation (% PfCRTDd2 control), [test solute]i = 5 mM (intracellular), PfCRTDd2 oocytes, normalised to oocyte type control): 98 ± 1.6% | activity at 5000 µM ([9]; pH 5.5, read-out: Uptake of [3H]CQ (% PfCRTDd2 control), trans-stimulation, PfCRTDd2, total [3H]CQ transport, [test solute]i = 5 mM (intracellular), mean ± SEM, SEM): 100 ± 2.2% | activity at 5000 µM ([9]; pH 5.5, read-out: Uptake of [3H]CQ (% PfCRTDd2 control), trans-stimulation, PfCRTDd2 oocytes, [test solute]i = 5 mM, total [3H]CQ transport, normalised to the oocyte type control): 100 ± 2.2% | activity at 45000 µM ([9]; pH 5.5, read-out: Uptake of [3H]CQ (% PfCRTDd2 control), trans-stimulation, PfCRTDd2 oocytes, total [3H]CQ transport, normalised to the oocyte type control): 101 ± 2.4% | activity at 5000 µM ([9]; pH 5.5, read-out: [3H]CQ transport (% PfCRTDd2 control), trans-stimulation, PfCRTDd2, trans-stimulation, [test solute]i = 5 mM (injected), PfCRT-mediated component (background subtracted), mean ± SEM, SEM): 98 ± 1.6% | activity at 45000 µM ([9]; pH 5.5, read-out: [3H]CQ transport (% PfCRTDd2 control), trans-stimulation, PfCRTDd2, trans-stimulation, PfCRT-mediated component (background subtracted), mean ± SEM, SEM): 99 ± 1.9% | Compounds that have been tested as potential co-substrates but are not required for influx of VF-6 via PfCRT into the oocyte [10]: X | inhibition at 500 µM [11, 22]: 2.1 ± 0.07% | inhibition at 1000 µM [11, 22]: 3.4 ± 0.1% | inhibition at 2000 µM [11, 22]: 3.6 ± 0.09% | inhibition at 500 µM [11, 23]: 97 ± 3.2% | inhibition at 1000 µM [11, 23]: 100 ± 3.6% | inhibition at 2000 µM [11, 23]: 100 ± 6.3%
